Source: PMC6402343 (ACS chemical biology, 2019)

Columns and labels:
RhlR [1] = target: T1, RhlR (Pseudomonas aeruginosa, UniProt P54292); assay: E. coli RhlR reporter; format: cell-based; conditions: E. coli RhlR reporter strain; for EC50: dose-response; for Max. RhlR Activation: efficacy
RhlR [2] = target: T1, RhlR; assay: P. aeruginosa PAO-JP2 RhlR reporter; format: cell-based; conditions: for EC50 / Max. RhlR Activation: P. aeruginosa RhlR reporter strain; for EC50: dose-response; for Max. RhlR Activation: efficacy

T1 sequence (P54292 whole entry): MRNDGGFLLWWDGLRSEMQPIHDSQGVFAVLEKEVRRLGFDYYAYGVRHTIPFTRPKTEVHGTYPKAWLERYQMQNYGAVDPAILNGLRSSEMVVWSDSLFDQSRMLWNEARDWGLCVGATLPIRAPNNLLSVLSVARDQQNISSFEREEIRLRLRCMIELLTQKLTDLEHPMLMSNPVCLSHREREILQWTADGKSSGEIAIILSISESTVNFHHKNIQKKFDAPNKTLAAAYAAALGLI

SMILES	EC50 (RhlR [1]) [nM]	Max. RhlR Activation (RhlR [1]) [%]	EC50 (RhlR [2]) [nM]	Max. RhlR Activation (RhlR [2]) [%]	fold lower potency in P. aeruginosa relative to E. coli (RhlR [2]; ratio of EC50 values in the two RhlR reporters)
CCCC(=O)N[C@H]1CCOC1=O [BHL, N-butyryl HL]	8950	100	8080	100	–
CC(C)CC(=O)N[C@H]1CCOC1=O [Compound 7, isovaleryl HL]	1020	110	1420	94	–
CC(C)CC(=O)NC1CCSC1=O (centres unmarked) [Compound 37, isovaryl homocysteine thiolactone]	463	93	2580	91	~ 5 fold
O=C(NC1CCOC1=O)C1CCC1 (centres unmarked) [Compound 17, cyclobutyl HL]	1780	100	1410	96	–
